Our source for the TGI values is PubChem BioAssay (NCI).

Test systems include UO-31 renal; SF-268 CNS; SN12C renal; NCI-H522 lung; UACC-62 melanoma; EKVX NSCLC; HS 578T breast; HCT-116 colon; MDA-MB-435; MOLT-4 leukemia.
Holding throughout (test): NCI anticancer screen, dose series, 48 h

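Method: 48-hour compound exposure of cells in 96-well plates, five concentrations, linear interpolation of endpoints. TGI is the concentration that stops growth completely.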 Bounds are passed on as bounds.

With `CCOP(=O)(OCC)/C(C#N)=C/c1cccn1N(C)C`, the TGI with UO-31 renal, with SF-268 CNS, with SN12C renal, in the test on NCI-H522 lung, in the test with UACC-62 melanoma and with EKVX NSCLC was greater than 100 µM each time. Moreover, the TGI in the test with HS 578T breast, in the test with HCT-116 colon, in the test on MDA-MB-435 and with MOLT-4 leukemia was greater than 100 µM in each case.

Turning to `CC(=O)c1c(-c2ccccc2)c(-c2ccc(OCCN(C)C)cc2)n2ccccc12`, the TGI in the test on UO-31 renal is 32.1 µM; with SF-268 CNS it was 33.1 µM; in the test with SN12C renal, 29.4 µM; with NCI-H522 lung it was 27.9 µM; in the test on UACC-62 melanoma, 30.7 µM; in the test on EKVX NSCLC it was 43.8 µM. Further, the TGI in the test with HS 578T breast was found to be 42.2 µM; in the test with HCT-116 colon, 26 µM; in the test with MDA-MB-435, 35.3 µM; in the test with MOLT-4 leukemia it was 48 µM.

Consider `COc1cc(C2SCC(=O)N2c2ccc(Cl)cc2)cc(I)c1O` (stereo not given), for which the TGI in the test on UO-31 renal is greater than 100 µM; in the test with SF-268 CNS, greater than 100 µM; in the test on SN12C renal it was greater than 100 µM; in the test on NCI-H522 lung, greater than 100 µM; in the test on UACC-62 melanoma, greater than 28.5 µM; with EKVX NSCLC, greater than 100 µM. Further, the TGI in the test with HS 578T breast, in the test with HCT-116 colon, in the test on MDA-MB-435 and with MOLT-4 leukemia was greater than 100 µM each time.

Turning to `CC(C)(C)OC(=O)NC(Cc1ccc(OCc2ccccc2)cn1)C(=O)N1CCSCC1` (stereo not given), the TGI in the test on UO-31 renal, in the test with SF-268 CNS, with SN12C renal, in the test with NCI-H522 lung, with UACC-62 melanoma and in the test on EKVX NSCLC was greater than 100 µM throughout. Moreover, the TGI in the test on HS 578T breast was greater than 100 µM; with HCT-116 colon, greater than 100 µM; in the test with MDA-MB-435 it was greater than 100 µM; in the test on MOLT-4 leukemia it was 59.1 µM.

As to `O=C1OC[C@@H]2Cc3c([nH]c4ccccc34)[C@@H](c3cc(O)c(O)c(O)c3)N12`, the TGI in the test with UO-31 renal was greater than 100 µM; in the test with SF-268 CNS it was greater than 100 µM; in the test on SN12C renal it was 98.9 µM; in the test with NCI-H522 lung it was 22.8 µM; with UACC-62 melanoma, 75.5 µM; in the test on EKVX NSCLC, greater than 100 µM. Also, the TGI came out at 76.2 µM in the test on HS 578T breast, 61.5 µM with HCT-116 colon, 25.9 µM in the test on MDA-MB-435 and 85.9 µM with MOLT-4 leukemia.
